For assay [1], the system named is human naso-pharyngeal cancer cell line KB. Nature of the assay: Test (b): in vitro inhibition of EGF-stimulated growth of the human naso-pharyngeal cancer cell line KB. In kind it is cell-based. The following applies: 72 h, EGF 10 ng/ml, 3 days incubation, MTT, example values stated as approximate. The procedure:
(b) An in vitro assay which determines the ability of a test compound to inhibit the EGF-stimulated growth of the human naso-pharyngeal cancer cell line KB.
Cell growth was determined after incubation for 3 days by the extent of metabolism of MTT tetrazolium dye to furnish a bluish colour. Cell growth was then determined in the presence of EGF (10 ng/ml) or in the presence of EGF (10 ng/ml) and a test compound at a range of concentrations. An lC50 value could then be calculated.

In assay [2] the test system is xenografts of the human vulval epidermoid carcinoma cell line A-431. Put plainly: Test (c): in-vivo inhibition of growth of A-431 xenografts in athymic nude mice. Details: species or system human (xenograft in athymic nude mice). The following applies: Mus musculus, daily dosing, usually oral, tumour volume inhibition relative to untreated controls. The procedure:
(c) An in-vivo assay in a group of athymic nude mice (strain ONU:Alpk) which determines the ability of a test compound (usually administered orally as a ball-milled suspension in 0.5% polysorbate) to inhibit the growth of xenografts of the human vulval epidermoid carcinoma cell line A-431. A-431 cells were maintained in culture in DMEM supplemented with 5% FCS nd 2 mM glutamine. Freshly cultured cells were harvested by trypsinization and injected subcutaneously (10 million cells/0.1 ml/mouse) into both flanks of a number of donor nude mice. When sufficient tumour material was available (after approximately 9 to 14 days), fragments of tumour tissue were transplanted in the flanks of recipient nude mice (test day 0). […] In some studies the dosing of the test compound was continued beyond test day 19, for example to test day 26. In each case, on the following test day the animals were killed and the final tumour volume was calculated from measurements of the length and width of the tumours. Results were calculated as a percentage inhibition of tumour volume relative to untreated controls.

Assay [3] deals with T1, EGF receptor tyrosine kinase (Homo sapiens, UniProt P00533).
T1 construct: Receptor tyrosine kinase was obtained in partially purified form from A-431 cells; endogenous in cells; host or cells: A-431 cells (human vulval carcinoma), Triton X-100 solubilised pelleted material
T1 sequence (P00533 25-1210): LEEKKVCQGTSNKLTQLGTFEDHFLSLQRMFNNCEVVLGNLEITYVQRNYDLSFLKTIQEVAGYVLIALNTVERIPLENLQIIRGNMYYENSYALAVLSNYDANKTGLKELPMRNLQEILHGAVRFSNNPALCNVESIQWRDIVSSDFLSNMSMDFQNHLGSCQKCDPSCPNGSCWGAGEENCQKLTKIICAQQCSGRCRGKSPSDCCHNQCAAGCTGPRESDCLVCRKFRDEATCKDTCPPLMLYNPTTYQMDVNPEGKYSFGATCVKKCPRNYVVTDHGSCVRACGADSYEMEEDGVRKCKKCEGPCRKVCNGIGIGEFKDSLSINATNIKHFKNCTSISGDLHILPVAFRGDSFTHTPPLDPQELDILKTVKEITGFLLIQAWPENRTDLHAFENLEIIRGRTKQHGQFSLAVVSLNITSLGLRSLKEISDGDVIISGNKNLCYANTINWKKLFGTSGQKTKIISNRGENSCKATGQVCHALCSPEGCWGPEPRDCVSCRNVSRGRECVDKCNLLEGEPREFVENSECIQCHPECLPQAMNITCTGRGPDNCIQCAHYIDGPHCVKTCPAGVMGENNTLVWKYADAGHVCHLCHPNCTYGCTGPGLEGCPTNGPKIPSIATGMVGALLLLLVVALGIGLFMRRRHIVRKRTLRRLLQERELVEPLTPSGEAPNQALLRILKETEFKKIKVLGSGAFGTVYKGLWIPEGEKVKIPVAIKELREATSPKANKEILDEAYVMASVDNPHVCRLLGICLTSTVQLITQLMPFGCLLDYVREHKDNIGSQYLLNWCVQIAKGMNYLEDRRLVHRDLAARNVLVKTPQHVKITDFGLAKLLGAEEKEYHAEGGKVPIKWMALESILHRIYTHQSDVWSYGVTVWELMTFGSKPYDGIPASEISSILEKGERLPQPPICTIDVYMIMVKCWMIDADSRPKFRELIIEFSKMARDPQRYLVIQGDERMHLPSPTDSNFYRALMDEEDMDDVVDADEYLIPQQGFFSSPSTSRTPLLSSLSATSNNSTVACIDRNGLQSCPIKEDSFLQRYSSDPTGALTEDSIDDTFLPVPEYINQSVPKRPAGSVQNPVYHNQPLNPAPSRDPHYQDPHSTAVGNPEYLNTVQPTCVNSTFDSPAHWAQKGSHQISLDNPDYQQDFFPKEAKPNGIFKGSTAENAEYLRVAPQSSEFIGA
Nature of the assay: Test (a): in vitro inhibition of the enzyme EGF receptor tyrosine kinase (partially purified from A-431 cells). Type of assay: biochemical. Conditions: example values stated as approximate. The procedure:
(a) An in vitro assay which determines the ability of a test compound to inhibit the enzyme EGF receptor tyrosine kinase. Receptor tyrosine kinase was obtained in partially purified form from A-431 cells (derived from human vulval carcinoma) by the procedures described below which are related to those described by Carpenter et al, J. Biol. Chem., 1979, 254, 4884, Cohen et al, J. Biol. Chem., 1982, 257, 1523 and by Braun et al., J. Biol. Chem., 1984, 259, 2051.
A-431 cells were grown to confluence using Dulbecco's modified Eagle's medium (DMEM) containing 5% fetal calf serum (FCS). The obtained cells were homogenised in a hypotonic borate/EDTA buffer at pH 10.1. The homogenate was centrifuged at 400 g for 10 minutes at 0°-4° C. The supernatant was centrifuged at 25,000 g for 30 minutes at 0°-4° C. The pelleted material was suspended in 30 mM Hepes buffer at pH 7.4 containing 5% glycerol, 4 mM benzamidine and 1% Triton X-100, stirred for 1 hour at 0°-4° C., and recentrifuged at 100,000 g for 1 hour at 0°-4° C. The supernatant, containing solubilised receptor tyrosine kinase, was stored in liquid nitrogen.
For test purposes 40 μl of the enzyme solution so obtained was added to a mixture of 400 μl of a mixture of 150 mM Hepes buffer at pH 7.4, 500 μM sodium orthovanadate, 0.1% Triton X-100, 10% glycerol, 200 μl water, 80 μl of 25 mM DTT and 80 μl of a mixture of 12.5 mM manganese chloride, 125 mM magnesium chloride and distilled water. There was thus obtained the test enzyme solution.
Equal volumes of this solution and a solution of epidermal growth factor (EGF; 20 μg/ml) were mixed.
[y-^32 P]ATP (3000 Ci/mM, 250 μCi) was diluted to a volume of 2 ml by the addition of a solution of ATP (100 μM) in distilled water. An equal volume of a 4 mg/ml solution of the peptide […]in a mixture of 40 mM Hepes buffer at pH 7.4, 0.1% Triton X-100 and 10% glycerol was added.
The test compound/EGF mixture solution (5 μl) was added to the test enzyme solution (10 μl) and the mixture was incubated at 0°-4° C. for 30 minutes. The ATP/peptide mixture (10 μl) was added and the mixture was incubated at 25° C. for 10 minutes. The phosphorylation reaction was terminated by the addition of 5% trichloroacetic acid (40 μl) and bovine serum albumin (BSA; 1 mg/ml, 5 μl). The mixture was allowed to stand at 4° C. for 30 minutes and then centrifuged. An aliquot (40 μl) of the supernatant was placed onto a strip of Whatman p 81 phosphocellulose paper. The strip was washed in 75 mM phosphoric acid (4×10 ml) and blotted dry. Radioactivity present in the filter paper was measured using a liquid scintillation counter (Sequence A). The reaction sequence was repeated in the absence of the EGF (Sequence B) and again in the absence of the test compound (Sequence C).
Receptor tyrosine kinase inhibition was calculated as follows: [formula]

For assay [4], the system named is transplanted human mammary carcinoma which expresses EGF receptor tyrosine kinase. The following applies: athymic nude mice; EGF receptor tyrosine kinase expressing; Toi et al., 1990; cited from earlier work.
The test system of assay [5] is carcinoma which does not express EGF receptor tyrosine kinase. The following applies: carcinoma not expressing EGF receptor tyrosine kinase; Toi et al., 1990; cited from earlier work.
Assay [6] deals with EGF receptor tyrosine kinase. Conditions: Fry et al., Science, 1994, 265, 1093; cited from earlier work.

Several values for one entry are separate records, joined by “and”; a condition that tells them apart may be missing. Equal entries are not always repeated.

The IC50 is the midpoint of a concentration-inhibition curve. Read a low IC50 as higher potency. The term ED50 denotes the midpoint of the dose-response relation. A high value points to weaker potency. Regarding `COc1cc2ncnc(Nc3ccc(F)c(Cl)c3)c2cc1OCCC1OCCO1` [Example 3, 4-(3'-chloro-4'-fluoroanilino)-6-[2-(1,3-dioxolan-2-yl)ethoxy]-7-methoxyquinazoline], the 50% inhibitory concentration (IC50) in assay [1] was found to be 330 nM; in assay [3] it was 10 nM. Also, in assay [2], the median effective dose (ED50) was ~50 mg/kg.

On to `O=CN/C=C/c1cc(O)ccc1O` [erbstatin], for which the “growth of transplanted human mammary carcinoma (in words)” value in assay [4] is “specifically attenuates the growth”. The “growth of another carcinoma (in words)” value in assay [5] was “without effect on the growth”.

For `COc1cc2ncnc(Nc3cccc(Br)c3)c2cc1OC` [4-(3'-bromoanilino)-6,7-dimethoxyquinazoline], the “inhibitor of EGF receptor tyrosine kinase (in words)” value in assay [6] was “highly potent inhibitor”.

Turning to `COc1cc2ncnc(Nc3ccc(F)c(Cl)c3)c2cc1OCC1OCCO1` [Example 2, 4-(3'-chloro-4'-fluoroanilino)-6-(1,3-dioxolan-2-ylmethoxy)-7-methoxyquinazoline], the IC50 in assay [1] turned out to be 200 nM; in assay [3] it was 10 nM.

`COc1cc2ncnc(Nc3ccc(F)c(Cl)c3)c2cc1OCCC1OCCCO1` [Example 8, 4-(3'-chloro-4'-fluoroanilino)-6-[2-(1,3-dioxan-2-yl)ethoxy]-7-methoxyquinazoline]: the IC50 was 40 nM in assay [1] and 5 nM in assay [3].

Take `COc1cc2ncnc(Nc3ccc(F)c(Cl)c3)c2cc1OCCCC1OCCO1` [Example 4, 4-(3'-chloro-4'-fluoroanilino)-6-[3-(1,3-dioxolan-2-yl)propoxy]-7-methoxyquinazoline]: the IC50 is 140 nM in assay [1] and 40 nM in assay [3].

As for `COc1cc2ncnc(Nc3ccc(F)c(Cl)c3)c2cc1OCC1(C)COC1` [Example 10, 4-(3'-chloro-4'-fluoroanilino)-7-methoxy-6-(3-methyloxetan-3-ylmethoxy)quinazoline], the concentration for half-maximal inhibition (IC50) in assay [1] is 65 nM; in assay [3], 10 nM and 34 nM.

For `COc1cc2ncnc(Nc3ccc(F)c(Cl)c3)c2cc1OCC1COCO1` (stereo not shown) [Example 5, 4-(3'-chloro-4'-fluoroanilino)-6-(1,3-dioxolan-4-ylmethoxy)-7-methoxyquinazoline], the half-inhibitory concentration (IC50) in assay [1] is 140 nM; in assay [3] it was 15 nM.
